Source: US20230277553A1, “THERAPEUTIC COMPOSITION OF CURE-PRO COMPOUNDS FOR TARGETED DEGRADATION OF BET DOMAIN PROTEINS, AND METHODS OF MAKING AND USAGE” (CORNELL UNIVERSITY, priority 2020, published 2023)
Entries after “also recorded” stand apart in the source; their conditions may differ.

What was measured:
Type in all cases: cell-based
BRD4 [1] = biological target: T1, BRD4 (Homo sapiens, UniProt O60885); experiment: Summary of BRD4 degradation by CURE-PRO pairs, estimated from Western Blot or WES (Proteinsimple); parameters: endogenous in cells; conditions: for Degradation of BRD4 in combination with MDM2 ligand [drawing 423] / Degradation of BRD4 in combination with MDM2 ligand [drawing 424]: Table 5, aryl-boronic acid-containing MDM2 ligand; for Degradation of BRD4 in combination with MDM2 ligand [drawing 423]: first drawing (8310); for Degradation of BRD4 in combination with MDM2 ligand [drawing 424]: second drawing (8312)
From the text: A black check mark indicates efficacy of 30% to 70% or higher protein degradation.

BRD4 [2] = biological target: T1, BRD4; experiment: CURE-PRO-mediated BRD4 degradation with MDM2 ligands, WES (ProteinSimple), HCT116 cells; parameters: endogenous in cells; conditions: HCT116, 24 h, WES; for BRD4 degradation, in combination with MDM2 ligand 8310: 1:1 with 8310, 10 μM; for BRD4 degradation, in combination with MDM2 ligand 8312: 1:1 with 8312, 10 μM
Experimental: All cell lines were purchased from ATCC or DSMZ and grown at 37° C. with 5% CO2. Human HeLa cells were cultured in complete growth medium (Dulbecco's modified Eagle's medium (DMEM) supplemented with 10% FBS); MCF7 cells were cultured in complete growth medium (Dulbecco's modified Eagle's medium (DMEM) supplemented with 10% FBS and 0.01 mg/ml human recombinant insulin (Sigma Aldrich); Namalwa and MOLM-13 cells were cultured in complete growth medium (RPMI 1640 medium supplemented with 10% FBS); MV-4-11 were cultured in complete growth medium (Iscove's Modified Dulbecco's medium, supplemented with 10% FBS); HCT116 cells were cultured in complete growth medium (McCoy's 5a Medium supplemented with 10% FBS). For cellular degradation of BRD4 studies, cells were seeded in a 12-well plate at 70-80% confluency, allowed to attach overnight, and incubated with the indicated compounds for the indicated time. When indicated, a 15-minute pretreatment with 10 μM pomalidomide, 10 μM VHL298, 10 μM Nutlin3a, 1 μM MG-132 or 1 μM Carfilzomib was performed before the addition of CURE-PROs. For washout studies, after CURE-PRO treatment, media was aspirated and incubated with complete medium for the indicated time before lysis.
WES Simple analysis was performed on WES system (ProteinSimple-Biotechne) according to the manufacturer's instructions. Total protein concentrations of cell lysates were determined by the Pierce BCA kit (Thermo Fisher). 3 μL of 0.3 μg/μL of the protein lysate was loaded onto a 12- to 230-kDa WES assay plate (ProteinSimple) where 300 nL sample was withdrawn through a capillary, subjected to electrophoretic separation of proteins by size, and followed by the simultaneous, HRP-based detection of proteins using the Anti-Rabbit Detection Module (Proteinsimple: #DM-001). The electropherograms were checked then the automatic peak detection was manually corrected if it was required.
HCT116 cells (3×10^6) were treated for 24 hours with the compounds solubilized in DMSO. Compounds were added at 1 μM-10 μM each. Standardized protein samples were electrophoresed and imaged as described in the WES ProteinSimple section above. FIGS. 59, 60, and 61 depict the concentration-dependence of CURE-PRO-mediated BRD4 degradation using MDM2 ligands.
HCT116 cells (3×10^6) were treated for 24 hours with the compounds solubilized in DMSO. Compounds were added at 1 μM-10 μM each. Standardized protein samples were electrophoresed and imaged as described in the WES ProteinSimple section above. FIGS. 62 and 63 depict the concentration-dependence of CURE-PRO-mediated BRD4 degradation using MDM2 ligands.
HCT116 cells (3×10^6) were treated for 24 hours with the compounds solubilized in DMSO. CURE-PRO monomers were added at 10 μM each and the proteasomal inhibitors at 1 μM. Standardized protein samples were electrophoresed and imaged as described in the WES ProteinSimple section above. FIG. 68 depicts the dependence of the proteasome for CURE-PRO-mediated BRD4 degradation.

BRD4 [3] = biological target: T1, BRD4; experiment: CURE-PRO-mediated BRD4 degradation, Western blot, HeLa cells; parameters: endogenous in cells; host or cells: HeLa; conditions: 24 h, Western blot
Summary of the method: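 HeLa cells treated 24 h with compounds in DMSO (1-10 μM, 10 μM or 100 μM each; paired monomers combined 1:1), optional 15-min pretreatment with pomalidomide, VHL298, Nutlin3a (10 μM) or MG-132/carfilzomib (1 μM). RIPA lysates, 10-20 μg protein immunoblotted for BRD4 with β-actin, ECL detection.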

Row | SMILES | Degradation of BRD4 in combination with MDM2 ligand [drawing 423] (BRD4 [1]) | Degradation of BRD4 in combination with MDM2 ligand [drawing 424] (BRD4 [1]) | BRD4 degradation, in combination with MDM2 ligand 8310 (BRD4 [2]) | BRD4 degradation, in combination with MDM2 ligand 8312 (BRD4 [2]) | Degradation of BRD4 in combination with CRBN ligand [drawing 407] (BRD4 [1]; Table 4, aryl-boronic acid-containing CRBN ligand, first drawing (by text: 8048)) | BRD4 degradation, co-treatment with CRBN ligand 8048 (BRD4 [3]; 1:1 with 8048, 1-10 μM each) | BRD4 degradation, co-treatment with CRBN ligand 8049 (BRD4 [3]; 1:1 with 8049, 1-10 μM each) | BRD4 degradation, BRD ligand alone (BRD4 [3]; BRD monomer alone) | Degradation of BRD4 in combination with CRBN ligand [drawing 372] (BRD4 [1]; Table 1, CRBN ligand, third drawing (8066)) | Degradation of BRD4 in combination with CRBN ligand [drawing 370] (BRD4 [1]; Table 1, aromatic 1,2-diol- or hindered cis-1,2-diol-containing CRBN ligand, first drawing (8046)) | Degradation of BRD4 in combination with VHL ligand [drawing 397] (BRD4 [1]; Table 3, aromatic 1,2-diol-containing VHL ligand, second drawing (8305)) | BRD4 degradation, in combination with MDM2 ligand 8313 (BRD4 [2]; 1:1 with 8313, 1-10 μM each) | BRD4 degradation, in combination with MDM2 ligand 8314 (BRD4 [2]; 1:1 with 8314, 1-10 μM each) | BRD4 degradation, co-treatment with CRBN ligand 8046 (BRD4 [3]; 1:1 with 8046, 10 μM each) | BRD4 degradation, co-treatment with CRBN ligand 8066 (BRD4 [3]; 1:1 with 8066, 10 μM each (BRD-E10: 10 and 100 μM))
1 | CCNC(=O)C[C@@H]1N=C(c2ccc(Cl)cc2)c2cc(OCCNC(=O)c3cccc(O)c3O)ccc2-n2c(C)nnc21 [BRD-N25] | ✓ (A black check mark indicates efficacy of 30% to 70% or higher protein degradation) | ✓ (A black check mark indicates efficacy of 30% to 70% or higher protein degradation) | caused BRD4 degradation; also recorded: marked BRD4 degradation | caused BRD4 degradation | – | – | – | – | – | – | – | – | – | – | –
2 | CCNC(=O)C[C@@H]1N=C(c2ccc(Cl)cc2)c2cc(OCCOCCNC(=O)c3cccc(O)c3O)ccc2-n2c(C)nnc21 [BRD-N39, N-(2-(2-(((4S)-6-(4-chlorophenyl)-4-(2-(ethylamino)-2-oxoethyl)-1-methyl-4H-benzo[f][1,2,4]triazolo[4,3-a][1,4]diazepin-8-yl)oxy)ethoxy)ethyl)-2,3-dihydroxybenzamide] | ✓ (A black check mark indicates efficacy of 30% to 70% or higher protein degradation) | ✓ (A black check mark indicates efficacy of 30% to 70% or higher protein degradation) | caused BRD4 degradation | caused BRD4 degradation | ✓ (A black check mark indicates efficacy of 30% to 70% or higher protein degradation) | causes degradation of BRD4; also recorded: Degradation is noted | no evidence of BRD4 degradation | no degradation of BRD4 | – | – | – | – | – | – | –
3 | CCNC(=O)C[C@@H]1N=C(c2ccc(Cl)cc2)c2cc(OCCCCC(=O)Nc3cccc(B(O)O)c3)ccc2-n2c(C)nnc21 [BRD-E20, (3-(5-(((4S)-6-(4-chlorophenyl)-4-(2-(ethylamino)-2-oxoethyl)-1-methyl-4H-benzo[f][1,2,4]triazolo[4,3-a][1,4]diazepin-8-yl)oxy)pentanamido)phenyl)boronic acid] | – | – | – | – | – | – | – | – | ✓ (A black check mark indicates efficacy of 30% to 70% or higher protein degradation) | ✓ (A black check mark indicates efficacy of 30% to 70% or higher protein degradation) | ✓ (A black check mark indicates efficacy of 30% to 70% or higher protein degradation) | had no effect on BRD4 protein levels | caused partial loss of the BRD4 protein; also recorded: Degradation is observed | causes degradation of BRD4; also recorded: Degradation is noted | causes degradation of BRD4; also recorded: Degradation is noted
